Values of other authors in patent US9636338B2, “Phenyl-dihydropyridine derivatives as inhibitors of aldosterone synthase” (Hoffmann-La Roche Inc., priority 2013, dated 2017).

Target: CYP11B2 (Homo sapiens (Human), UniProt P19099)
Conditions: patients with primary aldosteronism; oral; cited from earlier work

Sequence of CYP11B2 (P19099 25-503): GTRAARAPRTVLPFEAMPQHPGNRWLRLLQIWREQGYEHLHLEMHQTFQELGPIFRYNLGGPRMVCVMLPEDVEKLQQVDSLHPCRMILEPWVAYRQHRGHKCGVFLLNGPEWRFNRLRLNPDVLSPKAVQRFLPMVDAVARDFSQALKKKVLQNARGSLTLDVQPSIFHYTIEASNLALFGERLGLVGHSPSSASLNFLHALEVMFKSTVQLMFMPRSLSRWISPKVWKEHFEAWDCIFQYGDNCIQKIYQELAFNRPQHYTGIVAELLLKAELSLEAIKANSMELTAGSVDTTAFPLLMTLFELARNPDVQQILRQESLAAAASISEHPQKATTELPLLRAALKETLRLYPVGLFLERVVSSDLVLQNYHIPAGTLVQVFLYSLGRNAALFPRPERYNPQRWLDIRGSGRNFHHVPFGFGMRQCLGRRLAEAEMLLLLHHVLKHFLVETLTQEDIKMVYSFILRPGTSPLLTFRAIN

With `N#Cc1ccc([C@H]2CCc3cncn32)c(F)c1` [LCI699] as the compound, how does the blood pressure read?
Its blood pressure is “mildly decreased”.

What about the circulating aldosterone levels of the same compound?
Its circulating aldosterone levels is “significantly lower”.

And the hypokalemia?
The hypokalemia was “corrected”.
